Results: publication PMC3823425 (Journal of Cellular and Molecular Medicine, 2012)
Entries after “also recorded” stand apart in the source; their conditions may differ. Read-outs that look alike come from different tables or passages of the source. Each block holds one compound with its values, some of them ahead of it.

Key:
[1] = target: VEGFR1 (Homo sapiens, UniProt P17948); assay: ELISA kinase assay VEGFR1; assay type: biochemical
[2] = target: T1, VEGFR2 (Homo sapiens, UniProt P35968); assay: biochemical
Target sequence in this assay (P35968 834-1162 limits assumed): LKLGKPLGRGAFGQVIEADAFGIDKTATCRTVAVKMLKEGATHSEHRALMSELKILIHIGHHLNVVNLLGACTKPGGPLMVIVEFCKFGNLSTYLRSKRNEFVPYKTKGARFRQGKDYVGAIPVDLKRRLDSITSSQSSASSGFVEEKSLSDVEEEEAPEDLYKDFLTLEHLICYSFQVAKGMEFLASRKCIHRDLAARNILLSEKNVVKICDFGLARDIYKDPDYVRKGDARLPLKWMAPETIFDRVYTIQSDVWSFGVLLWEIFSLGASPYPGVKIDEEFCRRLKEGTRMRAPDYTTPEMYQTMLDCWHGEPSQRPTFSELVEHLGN

[3] = target: T2, PDGFRβ (Homo sapiens, UniProt P09619); assay: ELISA kinase assay PDGFRβ; assay type: biochemical
T2 sequence (P09619 33-1106, species assumed): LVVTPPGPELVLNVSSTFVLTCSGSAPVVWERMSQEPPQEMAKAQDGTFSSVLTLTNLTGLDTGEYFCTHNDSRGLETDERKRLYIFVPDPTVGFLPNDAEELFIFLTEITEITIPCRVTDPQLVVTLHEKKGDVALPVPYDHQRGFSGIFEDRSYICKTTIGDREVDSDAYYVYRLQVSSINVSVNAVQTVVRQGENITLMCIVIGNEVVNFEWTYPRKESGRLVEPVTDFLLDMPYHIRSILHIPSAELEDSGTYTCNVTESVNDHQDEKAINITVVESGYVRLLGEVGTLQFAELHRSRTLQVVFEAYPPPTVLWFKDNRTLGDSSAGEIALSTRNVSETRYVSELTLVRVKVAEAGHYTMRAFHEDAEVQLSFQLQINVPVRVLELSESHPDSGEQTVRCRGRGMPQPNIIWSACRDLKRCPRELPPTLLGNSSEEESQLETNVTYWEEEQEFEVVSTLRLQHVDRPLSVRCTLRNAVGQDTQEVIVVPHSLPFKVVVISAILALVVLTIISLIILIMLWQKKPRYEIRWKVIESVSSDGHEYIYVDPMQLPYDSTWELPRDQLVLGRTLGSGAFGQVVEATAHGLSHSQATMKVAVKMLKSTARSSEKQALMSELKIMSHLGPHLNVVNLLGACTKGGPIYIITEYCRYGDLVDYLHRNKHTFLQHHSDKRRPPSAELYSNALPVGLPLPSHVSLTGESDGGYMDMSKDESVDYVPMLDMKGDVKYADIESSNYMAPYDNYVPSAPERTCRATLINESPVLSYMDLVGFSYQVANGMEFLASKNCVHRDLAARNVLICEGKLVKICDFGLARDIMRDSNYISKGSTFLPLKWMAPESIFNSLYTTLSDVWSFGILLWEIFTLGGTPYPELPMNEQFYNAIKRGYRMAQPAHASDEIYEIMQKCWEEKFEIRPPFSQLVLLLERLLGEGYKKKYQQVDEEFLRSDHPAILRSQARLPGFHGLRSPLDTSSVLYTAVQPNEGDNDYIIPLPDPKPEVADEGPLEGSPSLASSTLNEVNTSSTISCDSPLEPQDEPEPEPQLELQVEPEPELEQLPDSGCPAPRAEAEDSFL

[4] = target: T3, PDGFRα (Homo sapiens, UniProt P16234); assay: ELISA kinase assay PDGFRα; assay type: biochemical
[5] = target: RET (Homo sapiens, UniProt P07949); assay: ELISA kinase assay RET; assay type: biochemical
[6] = target: c-Kit (Homo sapiens, UniProt P10721); assay: ELISA kinase assay c-Kit; assay type: biochemical
[7] = target: c-Src (Homo sapiens, UniProt P12931); assay: biochemical
[8] = target: EPH-A2 (Homo sapiens, UniProt P29317); assay: ELISA kinase assay EPH-A2; assay type: biochemical; conditions: IC50 EPHA2, ELISA
Sequence of EPH-A2 (P29317 613-875 limits assumed, species assumed): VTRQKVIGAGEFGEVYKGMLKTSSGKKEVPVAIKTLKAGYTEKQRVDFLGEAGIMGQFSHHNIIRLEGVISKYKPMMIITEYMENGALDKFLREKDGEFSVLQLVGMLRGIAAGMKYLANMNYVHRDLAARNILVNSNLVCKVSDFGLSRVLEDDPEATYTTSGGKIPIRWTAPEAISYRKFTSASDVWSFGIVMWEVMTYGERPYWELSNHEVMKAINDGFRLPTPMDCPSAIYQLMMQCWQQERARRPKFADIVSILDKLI

[9] = target: EPH-B2 (Homo sapiens, UniProt P29323); assay: ELISA kinase assay EPH-B2; assay type: biochemical
[10] = tested on: HUVEC cells; assay: VEGF-driven HUVEC proliferation; assay type: cell-based; conditions: Homo sapiens, read-out: IC50 VEGF-driven HUVECs proliferation
[11] = tested on: HUVEC cells; assay: b-FGF-driven HUVEC proliferation; assay type: cell-based; conditions: Homo sapiens, read-out: IC50 bFGF-driven HUVECs proliferation
[12] = tested on: chicken chorioallantoic membrane; assay: Chicken chorioallantoic membrane assay; assay type: in vivo; conditions: 48 hrs
[13] = tested on: renal carcinoma xenograft (No.213847); assay: CD31 immunohistochemistry of tumour microvessels; assay type: in vivo, nude mice; conditions: five consecutive days
[14] = tested on: renal carcinoma xenograft (No.213847); assay: PDGFRβ immunohistochemistry of tumour pericytes; assay type: in vivo, nude mice; conditions: 5 days
[15] = tested on: 786-O renal carcinoma xenograft; assay: Tumour xenograft 786-O; assay type: in vivo, nude mice; conditions: 786-O model, dosages below 20 mg/kg
[16] = tested on: Bxpc-3 pancreatic cancer xenograft; assay: Tumour xenograft Bxpc-3; assay type: in vivo, nude mice; conditions: Bxpc-3 model, dosages below 20 mg/kg
[17] = tested on: renal carcinoma xenograft No.213847; assay: Patient-derived renal carcinoma xenograft No.213847; assay type: in vivo, nude mice
[18] = tested on: renal carcinoma xenograft No.20090223; assay: Patient-derived renal carcinoma xenograft No.20090223; assay type: in vivo, nude mice
[19] = Toxicity observed in panel of human xenograft models; assay type: in vivo, nude mice; conditions: p.o., 5 days per week, 5–20 mg/kg
[20] = Plasma pharmacokinetics after p.o. administration; assay type: in vivo, rats
[21] = Tissue distribution in tumour-bearing nude mice; assay type: in vivo; conditions: for concentration at 21 day: nude, mouse, oral, 10 mg/kg
[22] = target: T4, FGFR1 (Homo sapiens, UniProt P11362); assay: bFGF-induced FGFR1 autophosphorylation in HUVEC; assay type: cell-based; conditions: b-FGF 25 ng/ml
Target sequence in this assay (P11362 22-822): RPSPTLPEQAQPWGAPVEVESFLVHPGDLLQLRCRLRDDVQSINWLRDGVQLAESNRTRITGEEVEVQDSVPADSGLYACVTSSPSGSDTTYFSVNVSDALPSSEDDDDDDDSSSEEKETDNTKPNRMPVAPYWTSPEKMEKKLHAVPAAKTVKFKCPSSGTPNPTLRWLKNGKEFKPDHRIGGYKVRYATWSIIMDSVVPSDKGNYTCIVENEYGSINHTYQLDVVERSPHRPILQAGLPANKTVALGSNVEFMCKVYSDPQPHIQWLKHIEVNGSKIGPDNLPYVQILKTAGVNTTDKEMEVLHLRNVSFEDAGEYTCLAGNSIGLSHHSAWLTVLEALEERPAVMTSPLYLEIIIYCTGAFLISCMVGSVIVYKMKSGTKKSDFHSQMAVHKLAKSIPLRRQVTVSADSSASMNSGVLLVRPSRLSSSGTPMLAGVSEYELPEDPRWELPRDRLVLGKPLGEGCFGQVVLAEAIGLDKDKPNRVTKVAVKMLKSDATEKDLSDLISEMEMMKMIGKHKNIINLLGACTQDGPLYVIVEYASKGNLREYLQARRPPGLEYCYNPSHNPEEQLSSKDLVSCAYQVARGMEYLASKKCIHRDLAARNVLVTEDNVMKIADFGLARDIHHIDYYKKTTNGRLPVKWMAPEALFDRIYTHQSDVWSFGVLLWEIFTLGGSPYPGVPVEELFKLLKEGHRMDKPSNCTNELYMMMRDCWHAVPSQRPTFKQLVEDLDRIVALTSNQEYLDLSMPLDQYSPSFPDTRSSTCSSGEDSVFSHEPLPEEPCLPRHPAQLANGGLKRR

[23] = target: PDGFRβ (Mus musculus, UniProt P05622); assay: PDGFBB-induced PDGFRβ autophosphorylation in Swiss3T3; assay type: cell-based, rat
Sequence of PDGFRβ (Mus musculus, UniProt P05622) (P05622 32-1098): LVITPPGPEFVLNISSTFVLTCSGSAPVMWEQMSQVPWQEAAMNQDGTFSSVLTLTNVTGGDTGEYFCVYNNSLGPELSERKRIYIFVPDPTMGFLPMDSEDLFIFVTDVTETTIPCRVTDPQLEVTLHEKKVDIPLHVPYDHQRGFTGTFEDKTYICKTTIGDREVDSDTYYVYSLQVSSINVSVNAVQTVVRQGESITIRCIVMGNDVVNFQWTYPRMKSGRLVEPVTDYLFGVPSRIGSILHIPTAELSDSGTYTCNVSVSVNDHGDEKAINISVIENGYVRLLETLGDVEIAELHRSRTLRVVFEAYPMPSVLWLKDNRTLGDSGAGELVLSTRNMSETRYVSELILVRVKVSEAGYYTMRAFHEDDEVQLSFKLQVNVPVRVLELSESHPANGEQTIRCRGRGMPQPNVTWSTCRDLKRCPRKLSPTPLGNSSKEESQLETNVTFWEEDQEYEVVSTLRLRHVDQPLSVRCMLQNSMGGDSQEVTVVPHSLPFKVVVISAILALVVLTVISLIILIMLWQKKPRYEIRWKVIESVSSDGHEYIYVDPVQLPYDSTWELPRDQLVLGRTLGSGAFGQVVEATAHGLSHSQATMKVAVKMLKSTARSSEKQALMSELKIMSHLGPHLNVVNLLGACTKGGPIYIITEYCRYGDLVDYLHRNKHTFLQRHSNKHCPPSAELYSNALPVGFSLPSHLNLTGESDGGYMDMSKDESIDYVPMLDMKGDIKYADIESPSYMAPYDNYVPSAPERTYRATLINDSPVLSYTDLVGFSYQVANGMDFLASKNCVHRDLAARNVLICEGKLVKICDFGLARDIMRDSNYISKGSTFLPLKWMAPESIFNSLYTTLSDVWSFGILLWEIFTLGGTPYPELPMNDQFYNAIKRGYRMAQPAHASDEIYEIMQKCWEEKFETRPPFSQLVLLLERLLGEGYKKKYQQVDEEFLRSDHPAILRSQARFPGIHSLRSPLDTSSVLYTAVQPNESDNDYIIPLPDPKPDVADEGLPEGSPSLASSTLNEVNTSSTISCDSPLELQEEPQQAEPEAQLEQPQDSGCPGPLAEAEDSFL

[24] = tested on: ERK1/2 and AKT; assay: VEGF-induced activation of ERK1/2 and AKT; assay type: cell-based; conditions: VEGF165 50 ng/ml
[25] = target: T1, VEGFR2; assay type: biochemical; conditions: pre-incubation 30 min., 100-fold dilution
Target sequence in this assay (P35968 834-1162 limits assumed): as the sequence (P35968 834-1162 limits assumed) above

[26] = target: T1, VEGFR2; assay: Cellular VEGFR2 autophosphorylation reversible assay; assay type: cell-based; conditions: HUVEC, 1 μmol/L for 4 hrs
Target sequence in this assay (P35968 20-1356): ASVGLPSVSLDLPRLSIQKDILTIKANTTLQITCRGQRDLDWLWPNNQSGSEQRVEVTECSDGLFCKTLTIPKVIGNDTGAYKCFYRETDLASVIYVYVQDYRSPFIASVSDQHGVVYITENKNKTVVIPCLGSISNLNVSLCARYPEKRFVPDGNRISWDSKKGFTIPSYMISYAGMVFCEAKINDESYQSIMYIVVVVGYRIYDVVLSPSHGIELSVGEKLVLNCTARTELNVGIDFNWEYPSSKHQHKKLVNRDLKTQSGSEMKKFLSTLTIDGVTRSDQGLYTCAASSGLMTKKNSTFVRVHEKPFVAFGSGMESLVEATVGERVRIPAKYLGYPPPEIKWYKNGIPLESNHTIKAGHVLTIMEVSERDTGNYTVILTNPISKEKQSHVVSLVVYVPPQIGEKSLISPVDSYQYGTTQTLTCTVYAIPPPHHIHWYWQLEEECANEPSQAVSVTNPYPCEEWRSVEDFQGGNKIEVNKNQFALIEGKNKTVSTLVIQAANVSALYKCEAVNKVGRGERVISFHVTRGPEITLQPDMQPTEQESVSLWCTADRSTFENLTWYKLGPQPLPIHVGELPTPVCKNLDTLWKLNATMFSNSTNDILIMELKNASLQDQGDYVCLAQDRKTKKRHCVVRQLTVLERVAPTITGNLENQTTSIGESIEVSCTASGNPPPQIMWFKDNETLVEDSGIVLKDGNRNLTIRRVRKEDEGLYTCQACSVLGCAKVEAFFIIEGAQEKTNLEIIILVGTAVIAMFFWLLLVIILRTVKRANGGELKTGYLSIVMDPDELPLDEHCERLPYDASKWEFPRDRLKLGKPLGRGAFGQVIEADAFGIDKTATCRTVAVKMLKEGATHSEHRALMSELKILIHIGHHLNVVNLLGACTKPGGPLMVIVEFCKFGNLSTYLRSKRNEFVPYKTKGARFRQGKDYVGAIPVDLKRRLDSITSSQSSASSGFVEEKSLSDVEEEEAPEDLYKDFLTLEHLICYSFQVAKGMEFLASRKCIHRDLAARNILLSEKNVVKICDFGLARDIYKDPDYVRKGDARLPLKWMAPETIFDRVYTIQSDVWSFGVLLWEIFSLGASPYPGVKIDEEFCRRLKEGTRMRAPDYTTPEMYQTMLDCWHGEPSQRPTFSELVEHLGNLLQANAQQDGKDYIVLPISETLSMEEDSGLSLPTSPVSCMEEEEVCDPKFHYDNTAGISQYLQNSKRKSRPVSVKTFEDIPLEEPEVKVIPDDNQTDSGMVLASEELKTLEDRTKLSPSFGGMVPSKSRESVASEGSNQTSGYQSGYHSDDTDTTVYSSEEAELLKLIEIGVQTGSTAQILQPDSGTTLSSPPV

[27] = target: T1, VEGFR2; assay type: biochemical; conditions: varying concentrations of ATP
Target sequence in this assay (P35968 834-1162 limits assumed): as the sequence (P35968 834-1162 limits assumed) above

[28] = tested on: 16 different tumour cell lines; assay: Tumour cell lines proliferation in vitro; assay type: cell-based; conditions: read-out: average IC50 against 16 tumour cell lines proliferation
[29] = target: T4, FGFR1; conditions: molecular assay, versus sorafenib
Target sequence in this assay (P11362 22-822, species assumed): as the sequence (P11362 22-822) above

[30] = target: T1, VEGFR2
Target sequence in this assay (P35968 20-1356): as the sequence (P35968 20-1356) above

[31] = target: T3, PDGFRα; conditions: read-out: IC50 PDGFRα phosphorylation in vitro assay; ref 17 Bello et al.; cited from earlier work
[32] = target: T2, PDGFRβ; conditions: read-out: IC50 PDGFRβ phosphorylation in vitro assay; ref 17 Bello et al.; cited from earlier work
[33] = target: T4, FGFR1; assay: biochemical
Target sequence in this assay (P11362 22-822, species assumed): as the sequence (P11362 22-822) above

[34] = day 21 versus first administration

SMILES: CNC(=O)c1cccc2cc(Oc3ccnc4cc(OCC5(N)CC5)c(OC)cc34)ccc12 [AL3810, 6-[[7-[(1-aminocyclopropyl)methoxy]-6-methoxy-4-quinolyl]oxy]-N-methyl-naphthalene-1-carboxamide]
IC50 [1]: 12 nM
IC50 [2]: 4 nM
IC50 [3]: 8 nM
IC50 [4]: 13 nM
IC50 [5]: 200 nM
IC50 [6]: 527 nM
IC50 [7]: 4900 nM
IC50 [8]: 6660 nM
IC50 [9]: 902 nM
IC50 [10]: 42 nM
IC50 [11]: 140 nM
inhibition rate of blood vessel numbers and branching ([12]; 0.3 nmol/egg): 45.4%
inhibition rate of blood vessel numbers and branching ([12]; 1 nmol/egg): 82.5%
reduction of vessel density (CD31) ([13]; 5 mg/kg): 45%
reduction of vessel density (CD31) ([13]; 10 mg/kg): 80%
reduction of vessel density (CD31) ([13]; 20 mg/kg): 90%
reduction of PDGFRβ positive cells ([14]; 5 mg/kg): 52%
reduction of PDGFRβ positive cells ([14]; 10 mg/kg): 73%
reduction of PDGFRβ positive cells ([14]; 20 mg/kg): 86%
tumour response [15]: tumour regression
tumour response [16]: tumour regression
T/C ([17]; No.213847, 5 mg/kg p.o., 5 days per week): 9.01%
tumour response ([17]; No.213847, 10–20 mg/kg): tumour regression
T/C ([18]; No.20090223, 5 mg/kg p.o., 5 days per week): 13.3%
tumour response ([18]; No.20090223, 10–20 mg/kg): tumour regression
toxicity in xenograft-bearing mice [19]: no obvious toxicity observed
bioavailability ([20]; rat, in vivo, po): 31%
Tmax ([20]; rat, plasma, po, 10 mg): 6 h
concentration at 24 hrs ([20]; rat, plasma, po, 10 mg): < 50 ng/mL
maximal plasma concentration ([20]; rats, 10 mg p.o.): ~1000 ng/mL
exposure in liver, improvement versus first administration [21, 34]: 1.6 times
exposure in lung, improvement versus first administration [21, 34]: 1.4 times
exposure in renal tissue, improvement versus first administration [21, 34]: 2.1 times
exposure in tumours, improvement versus first administration [21, 34]: 2.9 times
concentration at 21 day ([21]; kidney): 398 ng/g
concentration at 21 day ([21]; liver): 276 ng/g
concentration at 21 day ([21]; lung): 208 ng/g
concentration at 21 day ([21]; plasma): 7.8 ng/mL
concentration at 21 day ([21]; tumour): 403 ng/g
bFGF-induced FGFR1 autophosphorylation / activation [22]: blocked
PDGFBB-induced PDGFRβ autophosphorylation ([23]; 100 nmol/l, Swiss3T3, PDGF-BB 40 ng/ml): inhibited; also recorded: almost completely block
VEGF-induced activation of ERK1/2 and AKT [24]: dramatically inhibited
reversibility of VEGFR2 inhibition [25]: reversible inhibitor
VEGFR2 phosphorylation after inhibitor washout ([26]; 6 hrs after removal): recovered substantially
VEGFR2 phosphorylation after inhibitor washout ([26]; 24 hrs after washout): total restoration
mode of inhibition versus ATP [27]: ATP competitive
IC50 [28]: ~18700 nM
IC50 against FGFR lower than sorafenib [29]: 25 fold
Tyr996 phosphorylation of VEGFR2 [30]: inhibited
VEGFR2 autophosphorylation [30]: almost completely blocked
IC50 [31]: 175 nM
IC50 [32]: 525 nM
IC50 [33]: 7 nM

bFGF-induced FGFR1 autophosphorylation / activation [22]: potent inhibitory effects
PDGFRβ activation ([23]; Swiss3T3, concentration not stated): potent inhibitory effects
SMILES: CNC(=O)c1cc(Oc2ccc(NC(=O)Nc3ccc(Cl)c(C(F)(F)F)c3)cc2)ccn1 [Sorafenib, reference compound]
IC50 [10]: 337 nM
IC50 [11]: 2260 nM
